From patent publication US10485235B2, “Aryloxypyrimidinyl ethers as herbicides” (FMC Corporation, priority 2015, dated 2019)

The compounds below were run on barnyardgrass (Echinochloa crus-galli) (assay: Test A preemergence, barnyardgrass). Settings: Echinochloa crus-galli, pre-emergence, 240 h; Preemergence, 125 g ai/ha; 0 to 100 scale (0 no effect, 100 complete control); read-out: Plant response rating, Barnyardgrass.
Type: in vivo
Method in brief: (§1)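 Scores (0 no effect to 100 complete control) come from visual comparison of treated and untreated plants kept about 10 days in a greenhouse. Growth medium was a loam/sand blend; preemergence treatment was a directed soil spray, postemergence treatment went onto plants at the 1–2 leaf stage.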

| Compound | pest or weed control at 125 g/ha |
| --- | --- |
| CCCCOc1c(Br)cccc1Oc1ncc(Cl)cn1 [Compound 13, 2-[3-bromo-2-(butoxy)phenoxy]-5-chloropyrimidine] | 100% |

Same assay, conditions: Echinochloa crus-galli, pre-emergence, 240 h; Preemergence, 500 g ai/ha; 0 to 100 scale (0 no effect, 100 complete control); read-out: Plant response rating, Barnyardgrass

| Compound | pest or weed control at 500 g/ha |
| --- | --- |
| CCCCOc1c(Br)cccc1Oc1ncc(Cl)cn1 [Compound 13, 2-[3-bromo-2-(butoxy)phenoxy]-5-chloropyrimidine] | 100% |

These compounds were tested on wheat (Triticum aestivum) (assay: Test A postemergence, wheat). Settings: Triticum aestivum, post-emergence, 240 h; 125 g ai/ha, postemergence; 0 to 100 scale, 0 is no effect, 100 is complete control; approximately 10 days; read-out: Plant response rating, Wheat.
Type: in vivo
Method in brief: as §1

| Compound | plant injury at 125 g/ha |
| --- | --- |
| CCCCOc1c(Br)cccc1Oc1ncc(Cl)cn1 [Compound 13, 2-[3-bromo-2-(butoxy)phenoxy]-5-chloropyrimidine] | 20% |

Same assay, conditions: Triticum aestivum, post-emergence, 240 h; 500 g ai/ha, postemergence; 0 to 100 scale, 0 is no effect, 100 is complete control; approximately 10 days; read-out: Plant response rating, Wheat

| Compound | plant injury at 500 g/ha |
| --- | --- |
| CCCCOc1c(Br)cccc1Oc1ncc(Cl)cn1 [Compound 13, 2-[3-bromo-2-(butoxy)phenoxy]-5-chloropyrimidine] | 40% |

Each compound was assayed on blackgrass (Alopecurus myosuroides) (assay: Test A postemergence, blackgrass). Settings: Alopecurus myosuroides, post-emergence, 240 h; 125 g ai/ha, postemergence; 0 to 100 scale, 0 is no effect, 100 is complete control; approximately 10 days; read-out: Plant response rating, Blackgrass.
Type: in vivo
Method in brief: as §1

| Compound | pest or weed control at 125 g/ha |
| --- | --- |
| CCCCOc1c(Br)cccc1Oc1ncc(Cl)cn1 [Compound 13, 2-[3-bromo-2-(butoxy)phenoxy]-5-chloropyrimidine] | 50% |

Same assay, conditions: Alopecurus myosuroides, post-emergence, 240 h; 500 g ai/ha, postemergence; 0 to 100 scale, 0 is no effect, 100 is complete control; approximately 10 days; read-out: Plant response rating, Blackgrass

| Compound | pest or weed control at 500 g/ha |
| --- | --- |
| CCCCOc1c(Br)cccc1Oc1ncc(Cl)cn1 [Compound 13, 2-[3-bromo-2-(butoxy)phenoxy]-5-chloropyrimidine] | 100% |

The compounds below were run on corn (Zea mays) (assay: Test A postemergence, corn). Settings: Zea mays, post-emergence, 240 h; 125 g ai/ha, postemergence; 0 to 100 scale, 0 is no effect, 100 is complete control; approximately 10 days.
Type: in vivo
Method in brief: as §1

| Compound | Corn plant response rating (crop injury, 0 = no effect, 100 = complete kill) at 125 g/ha |
| --- | --- |
| CCCCOc1c(Br)cccc1Oc1ncc(Cl)cn1 [Compound 13, 2-[3-bromo-2-(butoxy)phenoxy]-5-chloropyrimidine] | 30% |

Same assay, conditions: Zea mays, post-emergence, 240 h; 500 g ai/ha, postemergence; 0 to 100 scale, 0 is no effect, 100 is complete control; approximately 10 days

| Compound | Corn plant response rating (crop injury, 0 = no effect, 100 = complete kill) at 500 g/ha |
| --- | --- |
| CCCCOc1c(Br)cccc1Oc1ncc(Cl)cn1 [Compound 13, 2-[3-bromo-2-(butoxy)phenoxy]-5-chloropyrimidine] | 90% |

The compounds below were run on ragweed (common ragweed, Ambrosia elatior) (assay: Test A preemergence, ragweed). Settings: Ambrosia artemisiifolia, pre-emergence, 240 h; Preemergence, 125 g ai/ha; 0 to 100 scale (0 no effect, 100 complete control); read-out: Plant response rating, Ragweed.
Type: in vivo
Method in brief: as §1

| Compound | pest or weed control at 125 g/ha |
| --- | --- |
| CCCCOc1c(Br)cccc1Oc1ncc(Cl)cn1 [Compound 13, 2-[3-bromo-2-(butoxy)phenoxy]-5-chloropyrimidine] | 0% |

Same assay, conditions: Ambrosia artemisiifolia, pre-emergence, 240 h; Preemergence, 500 g ai/ha; 0 to 100 scale (0 no effect, 100 complete control); read-out: Plant response rating, Ragweed

| Compound | pest or weed control at 500 g/ha |
| --- | --- |
| CCCCOc1c(Br)cccc1Oc1ncc(Cl)cn1 [Compound 13, 2-[3-bromo-2-(butoxy)phenoxy]-5-chloropyrimidine] | 10% |

Each compound was assayed on pigweed (Amaranthus retroflexus) (assay: Test A postemergence, pigweed). Settings: Amaranthus retroflexus, post-emergence, 240 h; 125 g ai/ha, postemergence; 0 to 100 scale, 0 is no effect, 100 is complete control; approximately 10 days; read-out: Plant response rating, Pigweed.
Type: in vivo
Method in brief: as §1

| Compound | pest or weed control at 125 g/ha |
| --- | --- |
| CCCCOc1c(Br)cccc1Oc1ncc(Cl)cn1 [Compound 13, 2-[3-bromo-2-(butoxy)phenoxy]-5-chloropyrimidine] | 100% |

Same assay, conditions: Amaranthus retroflexus, post-emergence, 240 h; 500 g ai/ha, postemergence; 0 to 100 scale, 0 is no effect, 100 is complete control; approximately 10 days; read-out: Plant response rating, Pigweed

| Compound | pest or weed control at 500 g/ha |
| --- | --- |
| CCCCOc1c(Br)cccc1Oc1ncc(Cl)cn1 [Compound 13, 2-[3-bromo-2-(butoxy)phenoxy]-5-chloropyrimidine] | 100% |

Each compound was assayed on foxtail, giant (giant foxtail, Setaria faberii) (assay: Test A preemergence, giant foxtail). Settings: Setaria faberi, pre-emergence, 240 h; Preemergence, 125 g ai/ha; 0 to 100 scale (0 no effect, 100 complete control); read-out: Plant response rating, Foxtail, Giant.
Type: in vivo
Method in brief: as §1

| Compound | pest or weed control at 125 g/ha |
| --- | --- |
| CCCCOc1c(Br)cccc1Oc1ncc(Cl)cn1 [Compound 13, 2-[3-bromo-2-(butoxy)phenoxy]-5-chloropyrimidine] | 100% |

Same assay, conditions: Setaria faberi, pre-emergence, 240 h; Preemergence, 500 g ai/ha; 0 to 100 scale (0 no effect, 100 complete control); read-out: Plant response rating, Foxtail, Giant

| Compound | pest or weed control at 500 g/ha |
| --- | --- |
| CCCCOc1c(Br)cccc1Oc1ncc(Cl)cn1 [Compound 13, 2-[3-bromo-2-(butoxy)phenoxy]-5-chloropyrimidine] | 100% |

Each compound was assayed on barnyardgrass (Echinochloa crus-galli) (assay: Test B flooded paddy test, barnyardgrass). Settings: Echinochloa crus-galli; 250 g ai/ha, Flood; visual rating after 13 to 15 days; scale 0 to 100, 0 is no effect, 100 is complete control; read-out: Plant response rating, Barnyardgrass.
Type: in vivo
Method in brief: (§2)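 Visual injury scored 0 (no effect) to 100 (complete control) relative to controls 13-15 days after treatment in greenhouse. Treatment: test compound added into paddy water of pots flooded 3 cm over soil, holding 2-leaf-stage plants; water level kept constant.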

| Compound | pest or weed control at 250 g/ha |
| --- | --- |
| CCCCOc1c(Br)cccc1Oc1ncc(Cl)cn1 [Compound 13, 2-[3-bromo-2-(butoxy)phenoxy]-5-chloropyrimidine] | 0% |

Each compound was assayed on sedge, umbrella (small-flower umbrella sedge, Cyperus difformis) (assay: Test B flooded paddy test, umbrella sedge). Settings: Cyperus difformis; 250 g ai/ha, Flood; visual rating after 13 to 15 days; scale 0 to 100, 0 is no effect, 100 is complete control; read-out: Plant response rating, Sedge, Umbrella.
Type: in vivo
Method in brief: as §2

| Compound | pest or weed control at 250 g/ha |
| --- | --- |
| CCCCOc1c(Br)cccc1Oc1ncc(Cl)cn1 [Compound 13, 2-[3-bromo-2-(butoxy)phenoxy]-5-chloropyrimidine] | 95% |

The compounds below were run on rice (Oryza sativa) (assay: Test B flooded paddy test, rice). Settings: Oryza sativa; 250 g ai/ha, Flood; visual rating after 13 to 15 days; scale 0 to 100, 0 is no effect, 100 is complete control; read-out: Plant response rating, Rice.
Type: in vivo
Method in brief: as §2

| Compound | plant injury at 250 g/ha |
| --- | --- |
| CCCCOc1c(Br)cccc1Oc1ncc(Cl)cn1 [Compound 13, 2-[3-bromo-2-(butoxy)phenoxy]-5-chloropyrimidine] | 20% |

Each compound was assayed on pigweed (Amaranthus retroflexus) (assay: Test A preemergence, pigweed). Settings: Amaranthus retroflexus, pre-emergence, 240 h; Preemergence, 125 g ai/ha; 0 to 100 scale (0 no effect, 100 complete control); read-out: Plant response rating, Pigweed.
Type: in vivo
Method in brief: as §1

| Compound | pest or weed control at 125 g/ha |
| --- | --- |
| CCCCOc1c(Br)cccc1Oc1ncc(Cl)cn1 [Compound 13, 2-[3-bromo-2-(butoxy)phenoxy]-5-chloropyrimidine] | 100% |

Same assay, conditions: Amaranthus retroflexus, pre-emergence, 240 h; Preemergence, 500 g ai/ha; 0 to 100 scale (0 no effect, 100 complete control); read-out: Plant response rating, Pigweed

| Compound | pest or weed control at 500 g/ha |
| --- | --- |
| CCCCOc1c(Br)cccc1Oc1ncc(Cl)cn1 [Compound 13, 2-[3-bromo-2-(butoxy)phenoxy]-5-chloropyrimidine] | 100% |

The compounds below were run on ragweed (common ragweed, Ambrosia elatior) (assay: Test A postemergence, ragweed). Settings: Ambrosia artemisiifolia, post-emergence, 240 h; 125 g ai/ha, postemergence; 0 to 100 scale, 0 is no effect, 100 is complete control; approximately 10 days; read-out: Plant response rating, Ragweed.
Type: in vivo
Method in brief: as §1

| Compound | pest or weed control at 125 g/ha |
| --- | --- |
| CCCCOc1c(Br)cccc1Oc1ncc(Cl)cn1 [Compound 13, 2-[3-bromo-2-(butoxy)phenoxy]-5-chloropyrimidine] | 0% |

Same assay, conditions: Ambrosia artemisiifolia, post-emergence, 240 h; 500 g ai/ha, postemergence; 0 to 100 scale, 0 is no effect, 100 is complete control; approximately 10 days; read-out: Plant response rating, Ragweed

| Compound | pest or weed control at 500 g/ha |
| --- | --- |
| CCCCOc1c(Br)cccc1Oc1ncc(Cl)cn1 [Compound 13, 2-[3-bromo-2-(butoxy)phenoxy]-5-chloropyrimidine] | 10% |

These compounds were tested on ryegrass, Italian (Italian ryegrass, Lolium multiflorum) (assay: Test A preemergence, Italian ryegrass). Settings: Lolium multiflorum, pre-emergence, 240 h; Preemergence, 125 g ai/ha; 0 to 100 scale (0 no effect, 100 complete control); read-out: Plant response rating, Ryegrass, Italian.
Type: in vivo
Method in brief: as §1

| Compound | pest or weed control at 125 g/ha |
| --- | --- |
| CCCCOc1c(Br)cccc1Oc1ncc(Cl)cn1 [Compound 13, 2-[3-bromo-2-(butoxy)phenoxy]-5-chloropyrimidine] | 10% |

Same assay, conditions: Lolium multiflorum, pre-emergence, 240 h; Preemergence, 500 g ai/ha; 0 to 100 scale (0 no effect, 100 complete control); read-out: Plant response rating, Ryegrass, Italian

| Compound | pest or weed control at 500 g/ha |
| --- | --- |
| CCCCOc1c(Br)cccc1Oc1ncc(Cl)cn1 [Compound 13, 2-[3-bromo-2-(butoxy)phenoxy]-5-chloropyrimidine] | 90% |

The compounds below were run on kochia (Kochia scoparia) (assay: Test A preemergence, kochia). Settings: Bassia scoparia, pre-emergence, 240 h; Preemergence, 125 g ai/ha; 0 to 100 scale (0 no effect, 100 complete control); read-out: Plant response rating, Kochia.
Type: in vivo
Method in brief: as §1

| Compound | pest or weed control at 125 g/ha |
| --- | --- |
| CCCCOc1c(Br)cccc1Oc1ncc(Cl)cn1 [Compound 13, 2-[3-bromo-2-(butoxy)phenoxy]-5-chloropyrimidine] | 80% |

Same assay, conditions: Bassia scoparia, pre-emergence, 240 h; Preemergence, 500 g ai/ha; 0 to 100 scale (0 no effect, 100 complete control); read-out: Plant response rating, Kochia

| Compound | pest or weed control at 500 g/ha |
| --- | --- |
| CCCCOc1c(Br)cccc1Oc1ncc(Cl)cn1 [Compound 13, 2-[3-bromo-2-(butoxy)phenoxy]-5-chloropyrimidine] | 100% |

What follows are compounds tested on ducksalad (Heteranthera limosa) (assay: Test B flooded paddy test, ducksalad). Settings: Heteranthera limosa; 250 g ai/ha, Flood; visual rating after 13 to 15 days; scale 0 to 100, 0 is no effect, 100 is complete control; read-out: Plant response rating, Ducksalad.
Type: in vivo
Method in brief: as §2

| Compound | pest or weed control at 250 g/ha |
| --- | --- |
| CCCCOc1c(Br)cccc1Oc1ncc(Cl)cn1 [Compound 13, 2-[3-bromo-2-(butoxy)phenoxy]-5-chloropyrimidine] | 50% |
